In US10111875B2, “Pyrrolopyrimidine compounds and uses thereof” (HUTCHISON MEDIPHARMA LIMITED, priority 2010, dated 2018) one finds IC50 and inhibition data, which are given here for 4 compounds.

Where two headings read alike, the source gives them in different places.

The subject of assay [1] is IL-3-induced STAT5 phosphorylation, TF-1 cells. Put plainly: IL-3-induced STAT5 phosphorylation in TF-1 cells. As to conditions: Homo sapiens, IL-3 stimulation, read-out: pSTAT5 (IC50). The class given is cell-based, human. The procedure:
For the determination of IL-3-induced STAT5 phosphorylation, TF-1 cells (ATCC) are plated in 96 well plates at 1×10^4 cells per well in 10% FBS RPMI-1640 media at 37° C., 5% CO2 for 3 hours. Cells were incubated in the presence or absence of various concentrations of diluted compound for 30 min at 37° C., 5% CO2. Cells were stimulated by adding 10 ng/ml human recombinant IL-3 to each well for 30 minutes at 37° C., 5% CO2. Cells are then fixed in 2% paraformaldehyde for 45 minutes at room temperature and incubated in ice-cold methanol for 30 minutes. After washing in PBS, cells are incubated with rabbit anti-phospho-STAT5 (Y694) (Cell Signaling Technologies, 1:1000 in antibody dilution solution) primary antibody overnight at 4° C. Goat anti-rabbit IgG Alexa 488 (Invitrogen, 1:1,000 dilution in PBS) secondary antibody is added for 90 minutes prior to PBS washes. Cells are counted following incubation in a 7.5 uM propidium iodide, 100 µg/ml RNaseA, PBS solution for 60 minutes in the dark. Plates are read on an Acumen X3 instrument (TPP Labtech).
(§1) Percent inhibition is calculated using the following formula: Inhibition (%)=100−((inhibitor treatment−cell)/(stimulator−cell))×100
(§2) where: Inhibitor treatment represents cell activation percentage of wells treated by both compound and stimulator (IL-6, IL-3 or IL-4); Cell represents the cell activation percentage of wells treated by neither compound nor stimulator (IL-6, IL-3 or IL-4). Stimulator represents the cell activation percentage of wells treated by stimulator (IL-6, IL-3 or IL-4) only.

Assay [2] concerns IL-6-induced STAT3 phosphorylation, HepG2 cells. Put plainly: IL-6-induced STAT3 phosphorylation in HepG2 cells. In kind it is cell-based, human. To be noted: Homo sapiens, IL-6 stimulation, read-out: pSTAT3 (IC50). The procedure: For the determination of IL-6-induced STAT3 phosphorylation, HepG2 cells (SIBS) are seeded in 96 well plates at […] cells per well in Serum Free DMEM media overnight and incubated in the presence or absence of various concentrations of diluted compound for 30 min at 37° C., 5% CO2. Cells were stimulated by adding 10 ng/ml human recombinant IL-6 to each well for 15 minutes at 37° C., 5% CO2. Cells are then fixed in 2% paraformaldehyde for 45 minutes at room temperature and incubated in ice-cold methanol for 30 minutes. After washing in PBS, cells are incubated with rabbit anti-phospho-STAT3 (Y705) (Cell Signaling Technologies, 1:1000 in antibody dilution solution) primary antibody overnight at 4° C. Goat anti-rabbit IgG Alexa 488 (Invitrogen, 1:1,000 dilution in PBS) secondary antibody is added for 90 minutes prior to PBS washes. Cells are counted following incubation in a 7.5 uM propidium iodide, 100 μg/ml RNaseA, PBS solution for 60 minutes in the dark. Plates are read on an Acumen X3 instrument (TPP Labtech).
as §1, §2

Assay [3] has as its system IL-4-induced STAT6 phosphorylation, Ramos cells. Put plainly: IL-4-induced STAT6 phosphorylation in Ramos cells. In kind it is cell-based. As to conditions: Homo sapiens, IL-4 stimulation, read-out: pSTAT6 (IC50). The method, then: For the determination of IL-4-induced STAT6 phosphorylation, Ramos cells (ATCC) are plated in 96 well plates at 1.0×10^4 cells per well 10% FBS RPMI-1640 and incubated at 37° C., 5% CO2 for 3 hours. Cells were incubated with compounds for 30 minutes prior to stimulation with interleukin-4 (10 ng/ml final) for an additional 30 minutes. Cells are then fixed in 2% paraformaldehyde for 45 minutes and incubated in ice-cold methanol for 30 minutes. After washing in PBS, cells are incubated with rabbit anti-phospho-STAT6 (Y641) (Cell Signaling Technologies, 1:1000 in antibody dilution solution) primary antibody overnight at 4° C. Goat anti-rabbit IgG Alexa 488 (Invitrogen, 1:1,000 dilution in PBS) secondary antibody is added for 90 minutes prior to PBS washes. Cells are counted following incubation in a 7.5 uM propidium iodide, 100 µg/ml RNaseA, PBS solution for 60 minutes in the dark. Plates are read on an Acumen X3 instrument (TPP Labtech).
as §1, §2

The target of assay [4] is Recombinant human JAK1 catalytic domain (Homo sapiens (Human), UniProt P23458). Put plainly: JAK1 kinase assay (Z'-LYTE Tyr 6 Peptide). In kind it is biochemical. To be noted: read-out: inhibition percentage (IR %). The method, then: JAK1/2/3 kinase assay are performed in vitro using Kit-Tyr 6 Peptide (Invitrogen, Cat. No. PV4122). TYK2 kinase assay are performed in vitro using Z′-LYTE™ Kinase Assay Kit-Tyr 3 Peptide (Invitrogen, Cat. No. PV3192). […] All compounds are initially tested at 8 different concentrations (1 μM down to 0.0003 μM) using a 1:3 serial dilution scheme.
Sequence of Recombinant human JAK1 catalytic domain (P23458 875-1153): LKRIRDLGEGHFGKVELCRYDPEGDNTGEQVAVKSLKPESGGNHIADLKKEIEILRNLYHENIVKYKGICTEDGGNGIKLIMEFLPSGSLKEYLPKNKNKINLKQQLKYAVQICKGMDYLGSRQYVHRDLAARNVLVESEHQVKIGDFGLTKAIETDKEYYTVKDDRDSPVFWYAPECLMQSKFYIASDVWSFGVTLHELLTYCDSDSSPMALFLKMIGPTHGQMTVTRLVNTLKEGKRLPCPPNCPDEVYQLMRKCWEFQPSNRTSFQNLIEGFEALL

[5] abbreviates: JAK1 kinase assay, 0.3 uM concentration.

For `CN(c1ccc(S(N)(=O)=O)cn1)[C@@H]1CCN(c2ncnc3[nH]ccc23)C1` [Compound 234], the IC50 came to 857 nM in assay [1], 337 nM in assay [2] and 385 nM in assay [3]. In assay [4] (setting [5]), the inhibition at 0.3 µM is 50 to 100%.

Turning to `CN(c1ncc(C#N)cn1)[C@@H]1CCN(c2ncnc3[nH]ccc23)C1` [Compound 142, (R)-2-((1-(7H-pyrrolo[2,3-d]pyrimidin-4-yl)pyrrolidin-3-yl)(methyl)amino)pyrimidine-5-carbonitrile], the IC50 in assay [1] turned out to be 3070 nM; in assay [2], 65 nM; in assay [3], 336 nM. The inhibition at 0.3 µM in assay [4] fell in the range of 20 to 50%.

Turning to `CN(c1ccc(C(=O)N[C@@H]2c3ccccc3C[C@H]2O)cc1F)[C@@H]1CCN(c2ncnc3[nH]ccc23)C1` [Compound 206], the IC50 stood at 693 nM in assay [1], 23.9 nM in assay [2] and 180 nM in assay [3]. In assay [4] (setting [5]), the inhibition at 0.3 µM lay within 50 to 100%.

Turning to `CNS(=O)(=O)N(C)[C@@H]1CCN(c2ncnc3[nH]ccc23)C1` [Compound 47], the values for the half-maximal inhibitory concentration (IC50) in assay [1], in assay [2] and in assay [3] were 1490 nM, 824 nM and 1150 nM, respectively. Also, the inhibition at 0.3 µM in assay [4] (setting [5]) lay in the range of 50 to 100%.

As a reminder, the IC50 is the midpoint of a concentration-inhibition curve. As usually defined, the inhibition is the share of the control response that was lost under treatment.
